Structures can show the parent of a compound that is named as a salt. Some results are limits rather than exact numbers.

T1 sequence (Q9Y2I7 whole entry): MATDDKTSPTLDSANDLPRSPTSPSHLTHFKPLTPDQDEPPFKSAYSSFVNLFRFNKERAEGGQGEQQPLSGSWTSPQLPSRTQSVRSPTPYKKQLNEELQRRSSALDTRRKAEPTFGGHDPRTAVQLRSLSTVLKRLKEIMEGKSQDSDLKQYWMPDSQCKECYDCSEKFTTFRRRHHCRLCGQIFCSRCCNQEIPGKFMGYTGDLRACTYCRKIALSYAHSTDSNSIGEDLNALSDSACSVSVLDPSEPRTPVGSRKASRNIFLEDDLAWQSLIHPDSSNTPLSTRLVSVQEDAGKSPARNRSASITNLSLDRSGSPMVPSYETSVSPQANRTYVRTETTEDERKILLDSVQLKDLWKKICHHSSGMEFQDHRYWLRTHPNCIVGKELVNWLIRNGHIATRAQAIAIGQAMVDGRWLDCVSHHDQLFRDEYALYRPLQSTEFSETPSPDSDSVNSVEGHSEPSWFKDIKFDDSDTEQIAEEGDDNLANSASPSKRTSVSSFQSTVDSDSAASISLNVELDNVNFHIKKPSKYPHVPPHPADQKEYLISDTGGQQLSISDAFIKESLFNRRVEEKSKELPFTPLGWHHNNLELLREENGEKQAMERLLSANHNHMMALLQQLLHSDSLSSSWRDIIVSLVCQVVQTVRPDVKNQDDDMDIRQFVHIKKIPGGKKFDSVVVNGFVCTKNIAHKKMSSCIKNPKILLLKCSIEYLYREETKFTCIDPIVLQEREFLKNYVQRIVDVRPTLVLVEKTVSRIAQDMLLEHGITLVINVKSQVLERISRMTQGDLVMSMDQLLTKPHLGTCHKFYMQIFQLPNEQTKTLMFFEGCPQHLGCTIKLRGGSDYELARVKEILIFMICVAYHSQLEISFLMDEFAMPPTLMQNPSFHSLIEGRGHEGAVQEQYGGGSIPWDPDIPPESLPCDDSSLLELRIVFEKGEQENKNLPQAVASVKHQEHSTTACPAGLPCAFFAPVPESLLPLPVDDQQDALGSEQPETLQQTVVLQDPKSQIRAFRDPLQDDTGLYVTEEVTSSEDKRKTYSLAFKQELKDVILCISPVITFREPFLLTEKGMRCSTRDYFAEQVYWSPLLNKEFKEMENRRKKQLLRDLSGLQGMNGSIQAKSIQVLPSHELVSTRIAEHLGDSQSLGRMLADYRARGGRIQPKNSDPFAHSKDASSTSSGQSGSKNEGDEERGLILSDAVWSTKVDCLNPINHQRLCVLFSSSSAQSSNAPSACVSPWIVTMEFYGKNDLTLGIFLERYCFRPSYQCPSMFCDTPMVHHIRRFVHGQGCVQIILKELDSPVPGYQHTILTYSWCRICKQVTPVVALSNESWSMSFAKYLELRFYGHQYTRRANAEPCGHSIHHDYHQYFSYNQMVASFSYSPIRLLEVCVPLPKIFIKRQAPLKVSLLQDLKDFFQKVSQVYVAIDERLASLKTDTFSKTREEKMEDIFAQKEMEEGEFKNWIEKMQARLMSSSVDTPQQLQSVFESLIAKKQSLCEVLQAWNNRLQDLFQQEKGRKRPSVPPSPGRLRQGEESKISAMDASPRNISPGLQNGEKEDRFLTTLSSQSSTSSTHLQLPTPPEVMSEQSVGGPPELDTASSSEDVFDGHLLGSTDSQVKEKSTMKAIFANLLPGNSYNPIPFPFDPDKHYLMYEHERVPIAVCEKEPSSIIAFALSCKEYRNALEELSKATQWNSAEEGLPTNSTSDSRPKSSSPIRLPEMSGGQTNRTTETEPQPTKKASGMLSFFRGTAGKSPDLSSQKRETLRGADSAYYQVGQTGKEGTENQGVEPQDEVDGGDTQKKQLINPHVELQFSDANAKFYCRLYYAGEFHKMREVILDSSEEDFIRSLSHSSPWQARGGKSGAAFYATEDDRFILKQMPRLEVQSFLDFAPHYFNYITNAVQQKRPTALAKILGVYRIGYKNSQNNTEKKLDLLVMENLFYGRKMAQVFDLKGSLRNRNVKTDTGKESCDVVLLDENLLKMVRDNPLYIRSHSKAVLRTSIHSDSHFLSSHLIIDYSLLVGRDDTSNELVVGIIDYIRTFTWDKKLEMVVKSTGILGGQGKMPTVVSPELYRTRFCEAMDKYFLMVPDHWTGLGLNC

This assay has as its target T1, Full length human recombinant PIKFYVE (Homo sapiens, UniProt Q9Y2I7).
T1 construct: Full length human recombinant PIKFYVE; purchased Carna Biosciences (Kobe, Japan); host or cells: baculovirus expression system
In words: Inhibition of PIKfyve (microfluidic electrophoresis kinase assay, PI3P/PS substrate). Type of assay: biochemical. Particulars: 12 concentrations. In short, it runs like this:
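GST-tagged full-length human PIKFYVE (baculovirus; 2 nM) with fluorescent PI3P/PS (1 μM PI3P) and […] in pH 7.5 HEPES with Mg2+/Mn2+, 1% DMSO, 3 h at room temperature. PI(3,5)P product/substrate ratio read by microfluidic electrophoresis; 12-point % inhibition versus no-enzyme and DMSO controls.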
Turning to `CN1CCC(c2cc3nc(Nc4cc(-c5ccccc5)n[nH]4)nc(N4CCOCC4)c3o2)CC1` [Compound 32], the IC50 turned out to be 116 nM.
For `c1ccc(-c2cc(Nc3nc(N4CCOCC4)c4oc(-c5cccnc5)cc4n3)[nH]n2)cc1` [Compound 29, 4-morpholino-N-(5-phenyl-1H-pyrazol-3-yl)-6-(3-pyridyl)furo[3,2-d]pyrimidin-2-amine, hydrogen chloride] the value was 1 nM.
Then `O=C(NC1COC1)c1cc2nc(-n3ccc(-c4ccccc4)n3)nc(N3CCOCC3)c2o1` [Compound 175, 4-morpholino-N-(oxetan-3-yl)-2-(3-phenylpyrazol-1-yl)furo[3,2-d]pyrimidine-6-carboxamide], with 4010 nM.
For `CN1CCCC(NC(=O)c2cc3nc(-n4cc(-c5ccccc5)cn4)nc(N4CCOCC4)c3o2)CC1` (stereo not drawn) [Compound 176, N-(1-methylazepan-4-yl)-4-morpholino-2-(4-phenylpyrazol-1-yl)furo[3,2-d]pyrimidine-6-carboxamide] the value was 47.3 nM.
For `CN(C)C(=O)c1cc2nc(Nc3cc(-c4ccccc4)[nH]n3)nc(N3CCOCC3)c2o1` [Compound 137, N,N-dimethyl-4-morpholino-2-((5-phenyl-1H-pyrazol-3-yl)amino)furo[3,2-d]pyrimidine-6-carboxamide], the IC50 was 95 nM.
Then `CNC(=O)c1cc2nc(Nc3cc(-c4ccsc4)n[nH]3)nc(N3CCOCC3)c2o1` [Compound 86, N-methyl-4-morpholino-2-((5-(thiophen-3-yl)-1H-pyrazol-3-yl)amino)furo[3,2-d]pyrimidine-6-carboxamide, hydrogen chloride], with 61 nM.
As for `c1ccc(-c2ccn(-c3nc(N4CCOCC4)c4oc(-c5ncco5)cc4n3)n2)cc1` [Compound 214, 4-morpholino-6-oxazol-2-yl-2-(3-phenylpyrazol-1-yl)furo[3,2-d]pyrimidine], the IC50 was determined as 44.1 nM.
Then `CN1CCN(Cc2cc3nc(Nc4cc(-c5ccccc5)n[nH]4)nc(N4CCOCC4)c3o2)CC1` [Compound 15], with 71 nM; and `c1ccc(-c2ccn(-c3nc(N4CCOCC4)c4oc(-c5ccncc5)cc4n3)n2)cc1` [Compound 158, 4-morpholino-2-(3-phenylpyrazol-1-yl)-6-(4-pyridyl)furo[3,2-d]pyrimidine], with 160 nM; and `c1ccc(-c2cc(Nc3nc(N4CCOCC4)c4oc(CN5CCOCC5)cc4n3)[nH]n2)cc1` [Compound 12, 4-morpholino-6-(morpholinomethyl)-N-(3-phenyl-1H-pyrazol-5-yl)furo[3,2-d]pyrimidin-2-amine hydrochloride], with 116 nM.
Then `Cc1cncc(-c2ccn(-c3nc(N4CCOCC4)c4oc(-c5ccccn5)cc4n3)n2)c1` [Compound 200, 2-[3-(5-methyl-3-pyridyl)pyrazol-1-yl]-4-morpholino-6-(2-pyridyl)furo[3,2-d]pyrimidine], with 3080 nM; and `c1ccc(-c2ccn(-c3nc(N4CCOCC4)c4oc(-c5ccccn5)cc4n3)n2)cc1` [Compound 155, 4-morpholino-2-(3-phenylpyrazol-1-yl)-6-(2-pyridyl)furo[3,2-d]pyrimidine], with 70.6 nM; and `Cc1ccc(-c2cc(Nc3nc(N4CCOCC4)c4oc(-c5ccncc5)cc4n3)[nH]n2)cc1` [Compound 4, 4-morpholino-N-[5-(p-tolyl)-1H-pyrazol-3-yl]-6-(4-pyridyl)furo[3,2-d]pyrimidin-2-amine, hydrogen chloride], with 30.9 nM.
For `CCN(C)C(=O)c1cc2nc(Nc3cc(-c4ccccc4)[nH]n3)nc(N3CCOCC3)c2o1` [Compound 57, N-ethyl-N-methyl-4-morpholino-2-[(5-phenyl-1H-pyrazol-3-yl)amino]furo[3,2-d]pyrimidine-6-carboxamide, hydrogen chloride] the value was 37 nM.
As to `CN(C)Cc1cc2nc(Nc3cc(-c4ccccc4)n[nH]3)nc(N3CCOCC3)c2o1` [Compound 14], the IC50 stood at 847 nM.
Then `O=C(c1cc2nc(Nc3cc(-c4ccccc4)[nH]n3)nc(N3CCOCC3)c2o1)N1CCCC1` [Compound 54, [4-morpholino-2-[(5-phenyl-1H-pyrazol-3-yl)amino]furo[3,2-d]pyrimidin-6-yl]-pyrrolidin-1-yl-methanone; hydrogen chloride], with 66 nM; and `c1cc(-c2cc(Nc3nc(N4CCOCC4)c4occc4n3)[nH]n2)ccn1` [Compound 10, 4-morpholino-N-(3-(pyridin-4-yl)-1H-pyrazol-5-yl)furo[3,2-d]pyrimidin-2-amine hydrochloride], with 6220 nM; and `[2H]C([2H])([2H])c1cccc(-c2ccn(-c3nc(N4CCOCC4)c4oc(-c5ccn(C)n5)cc4n3)n2)c1` [Compound 216, 6-(1-methylpyrazol-3-yl)-4-morpholino-2-[3-[3-(trideuteriomethyl)phenyl]pyrazol-1-yl]furo[3,2-d]pyrimidine], with 0.8 nM.
For `Cc1c(-c2ccccn2)oc2c(N3CCOCC3)nc(-n3ccc(-c4ccccc4)n3)nc12` [Compound 179, 7-methyl-4-morpholino-2-(3-phenyl-1H-pyrazol-1-yl)-6-(pyridin-2-yl)furo[3,2-d]pyrimidine] the value was at least 10000 nM; for `Cc1cccc(-c2cnn(-c3nc(N4CCOCC4)c4oc(C(=O)NCCS(C)(=O)=O)cc4n3)c2)c1` [Compound 150, N-(2-(methylsulfonyl)ethyl)-4-morpholino-2-(4-(m-tolyl)-1H-pyrazol-1-yl)furo[3,2-d]pyrimidine-6-carboxamide], 103 nM; for `c1ccc(-c2nnc(Nc3nc(N4CCOCC4)c4oc(-c5ccncc5)cc4n3)o2)cc1` [Compound 47, 4-morpholino-N-(5-phenyl-1,3,4-oxadiazol-2-yl)-6-(4-pyridyl)furo[3,2-d]pyrimidin-2-amine, hydrogen chloride], 52 nM.
Then `O=C(NC1CC1)c1cc2nc(-n3cc(-c4ccccc4)cn3)nc(N3CCOCC3)c2o1` [Compound 165, N-cyclopropyl-4-morpholino-2-(4-phenylpyrazol-1-yl)furo[3,2-d]pyrimidine-6-carboxamide], with 68.4 nM; and `c1ccn2nc(Nc3nc(N4CCOCC4)c4oc(-c5ccncc5)cc4n3)cc2c1` [Compound 51, 4-morpholino-N-pyrazolo[1,5-a]pyridin-2-yl-6-(4-pyridyl)furo[3,2-d]pyrimidin-2-amine, hydrogen chloride], with 88 nM.
As to `CN1CCC(c2cc3nc(Nc4cc(-c5ccncc5)n[nH]4)nc(N4CCOCC4)c3o2)C1` (stereo not drawn) [Compound 40], the IC50 was 2570 nM.
For `CCNC(=O)c1cc2nc(-n3ccc(-c4ccccc4)n3)nc(N3CCOCC3)c2o1` [Compound 152, N-ethyl-4-morpholino-2-(3-phenyl-1H-pyrazol-1-yl)furo[3,2-d]pyrimidine-6-carboxamide] the value was 306 nM.
`CC(C)c1cc(Nc2nc(N3CCOCC3)c3oc(-c4ccncc4)cc3n2)[nH]n1` [Compound 77, N-(5-isopropyl-1H-pyrazol-3-yl)-4-morpholino-6-(pyridin-4-yl)furo[3,2-d]pyrimidin-2-amine, hydrogen chloride]: the IC50 amounted to 175 nM.
Then `c1ccc(-c2cc(Nc3nc(N4CCOCC4)c4oc(-c5ccncc5)cc4n3)on2)cc1` [Compound 44, 4-morpholino-N-(3-phenylisoxazol-5-yl)-6-(pyridin-4-yl)furo[3,2-d]pyrimidin-2-amine], with 2 nM.
In the case of `c1ccc(-c2cnn(-c3nc(N4CCOCC4)c4oc(-c5cccnc5)cc4n3)c2)cc1` [Compound 160, 4-morpholino-2-(4-phenylpyrazol-1-yl)-6-(3-pyridyl)furo[3,2-d]pyrimidine], the IC50 was 61.7 nM.
For `Cc1cccc(-c2cnn(-c3nc(N4CCOCC4)c4oc(C(=O)NC5CC5)c(C(F)(F)F)c4n3)c2)c1` [Compound 147, N-cyclopropyl-4-morpholino-2-(4-(m-tolyl)-1H-pyrazol-1-yl)-7-(trifluoromethyl)furo[3,2-d]pyrimidine-6-carboxamide] the value was 1030 nM; for `Cc1cc(-c2cc3nc(-n4cc(-c5ccccc5)cn4)nc(N4CCOCC4)c3o2)[nH]n1` [Compound 163, 6-(3-methyl-1H-pyrazol-5-yl)-4-morpholino-2-(4-phenylpyrazol-1-yl)furo[3,2-d]pyrimidine], 23.5 nM.
Then `O=C(NC1CCOCC1)c1cc2nc(-n3ccc(-c4cccc(Br)c4)n3)nc(N3CCOCC3)c2o1` [Compound 220, 2-[3-(3-bromophenyl)pyrazol-1-yl]-4-morpholino-N-tetrahydropyran-4-yl-furo[3,2-d]pyrimidine-6-carboxamide], with 16.3 nM; and `c1ccc(-c2cc(Nc3nc(N4CCOCC4)c4oc(CN5CCCC5)cc4n3)[nH]n2)cc1` [Compound 16], with 1000 nM.
Consider `CN1CCC(NC(=O)c2cc3nc(-n4cc(-c5ccccc5)cn4)nc(N4CCOCC4)c3o2)C1` (stereo not drawn) [Compound 170, N-(1-methylpyrrolidin-3-yl)-4-morpholino-2-(4-phenylpyrazol-1-yl)furo[3,2-d]pyrimidine-6-carboxamide], for which the IC50 is 45.5 nM.
For `Cc1cccc(-c2cnn(-c3nc(N4CCOCC4)c4oc(-c5ccn(C)n5)cc4n3)c2)c1` [Compound 201, 6-(1-methylpyrazol-3-yl)-4-morpholino-2-[4-(m-tolyl)pyrazol-1-yl]furo[3,2-d]pyrimidine] the value was 0.5 nM; for `CNC(=O)c1cc2nc(Nc3cc(C(F)(F)F)n[nH]3)nc(N3CCOCC3)c2o1` [Compound 81, N-methyl-4-morpholino-2-((5-(trifluoromethyl)-1H-pyrazol-3-yl)amino)furo[3,2-d]pyrimidine-6-carboxamide, hydrogen chloride], at least 10000 nM.
Consider `CNC(=O)c1cc2nc(Nc3cc(Cc4ccccc4)n[nH]3)nc(N3CCOCC3)c2o1` [Compound 82], for which the IC50 was 1390 nM.

As a reminder, the IC50 is the concentration at which inhibition is half-maximal.

The record behind these values is patent publication US20230146395A1, “Substituted Pyrimidines and Uses Thereof” (Verge Analytics, Inc., priority 2020, published 2023).
